Data as given in patent US20240109903A1, “SUBSTITUTED HETEROCYCLES FOR TREATING CANCER” (Northwestern University, priority 2022, published 2024).
Read-outs that look alike come from different tables or passages of the source.

What was measured:
Assay type in all cases: cell-based
NCI-H460 = assay: NCI 60 five-dose screen NCI-H460; details: Homo sapiens; for CC50: read-out: LC50 (the source's name) (converted)
SW-620 = assay: NCI 60 five-dose screen SW-620; details: Homo sapiens; for CC50: read-out: LC50 (the source's name) (converted)
COLO 205 = assay: NCI 60 five-dose screen COLO 205; details: Homo sapiens; for CC50: read-out: LC50 (the source's name) (converted)
MDA-MB-231/ATCC = assay: NCI 60 five-dose screen MDA-MB-231/ATCC; details: Homo sapiens; for CC50: read-out: LC50 (the source's name) (converted)
MDA-MB-435 = assay: NCI 60 five-dose screen MDA-MB-435; details: Homo sapiens; for CC50: read-out: LC50 (the source's name) (converted)
HCT-15 = assay: NCI 60 five-dose screen HCT-15; details: Homo sapiens; for CC50: read-out: LC50 (the source's name) (converted)
NCI-H322M = assay: NCI 60 five-dose screen NCI-H322M; details: Homo sapiens; for CC50: read-out: LC50 (the source's name) (converted)
K-562 = assay: NCI 60 five-dose screen K-562; details: Homo sapiens
CCRF-CEM = assay: NCI 60 five-dose screen CCRF-CEM; details: Homo sapiens; for CC50: read-out: LC50 (the source's name)
HOP-92 = assay: NCI 60 five-dose screen HOP-92; details: Homo sapiens; for CC50: read-out: LC50 (the source's name) (converted)
SN12C = assay: NCI 60 five-dose screen SN12C; details: Homo sapiens; for CC50: read-out: LC50 (the source's name) (converted)
NCI-H522 = assay: NCI 60 five-dose screen NCI-H522; details: Homo sapiens; for CC50: read-out: LC50 (the source's name) (converted)
LOX IMVI = assay: NCI 60 five-dose screen LOX IMVI; details: Homo sapiens; for CC50: read-out: LC50 (the source's name) (converted)
UO-31 = assay: NCI 60 five-dose screen UO-31; details: Homo sapiens; for CC50: read-out: LC50 (the source's name) (converted)

SMILES: COc1cc(Cn2c(C(F)(F)F)cc3c(Cl)ncnc32)ccn1 [NUCC-0226694]
- GI50 (NCI-H460): 2.69 µM
- IC50 (NCI-H460): 3.31 µM
- IC (TGI) (NCI-H460): 8.13 µM
- CC50 (NCI-H460): 34.7 µM
- GI50 (SW-620): 3.89 µM
- IC50 (SW-620): 4.9 µM
- IC (TGI) (SW-620): 16.6 µM
- CC50 (SW-620): 49 µM
- GI50 (COLO 205): 15.1 µM
- IC50 (COLO 205): 26.3 µM
- IC (TGI) (COLO 205): 46.8 µM
- CC50 (COLO 205): ≥ 100 µM
- GI50 (MDA-MB-231/ATCC): 3.31 µM
- IC50 (MDA-MB-231/ATCC): 7.94 µM
- IC (TGI) (MDA-MB-231/ATCC): 12.6 µM
- CC50 (MDA-MB-231/ATCC): 42.7 µM
- GI50 (MDA-MB-435): 3.24 µM
- IC50 (MDA-MB-435): 4.79 µM
- IC (TGI) (MDA-MB-435): 14.5 µM
- CC50 (MDA-MB-435): 50.1 µM
- GI50 (HCT-15): 3.09 µM
- IC50 (HCT-15): 3.8 µM
- IC (TGI) (HCT-15): 10 µM
- CC50 (HCT-15): 53.7 µM
- GI50 (NCI-H322M): 1.7 µM
- IC50 (NCI-H322M): 3.16 µM
- IC (TGI) (NCI-H322M): 3.31 µM
- CC50 (NCI-H322M): 6.31 µM
- GI50 (K-562; K562): 2.34 µM
- IC50 (K-562; K562): 2.69 µM
- IC (TGI) (K-562; K562): 100 µM
- CC50 (K-562; K562, read-out: LC50 (the source's name)): ≥ 100 µM
- GI50 (CCRF-CEM): 3.16 µM
- IC50 (CCRF-CEM): 5.37 µM
- IC (TGI) (CCRF-CEM): 18.6 µM
- CC50 (CCRF-CEM): ≥ 100 µM
- GI50 (HOP-92): 10.7 µM
- IC50 (HOP-92): 33.9 µM
- IC (TGI) (HOP-92): 30.2 µM
- CC50 (HOP-92): 85.1 µM
- GI50 (SN12C): 9.12 µM
- IC50 (SN12C): 15.5 µM
- IC (TGI) (SN12C): 21.4 µM
- CC50 (SN12C): 46.8 µM
- GI50 (NCI-H522): 3.31 µM
- IC50 (NCI-H522): 11 µM
- IC (TGI) (NCI-H522): 15.1 µM
- CC50 (NCI-H522): 50.1 µM
- GI50 (LOX IMVI): 1.66 µM
- IC50 (LOX IMVI): 2.88 µM
- IC (TGI) (LOX IMVI): 3.16 µM
- CC50 (LOX IMVI): 6.03 µM
- GI50 (UO-31): 8.71 µM
- IC50 (UO-31): 18.2 µM
- IC (TGI) (UO-31): 24 µM
- CC50 (UO-31): 61.7 µM

SMILES: FC(F)(F)c1cc2c(Cl)ncnc2n1CCC1CCOCC1 [NUCC-0226674]
- GI50 (NCI-H460; five-dose): 2.4 µM
- IC50 (NCI-H460; five-dose): 3.55 µM
- IC (TGI) (NCI-H460; five-dose): 5.62 µM
- CC50 (NCI-H460; five-dose): 22.4 µM
- GI50 (SW-620; five-dose): 12 µM
- IC50 (SW-620; five-dose): 17.4 µM
- IC (TGI) (SW-620; five-dose): 28.2 µM
- CC50 (SW-620; five-dose): 67.6 µM
- GI50 (COLO 205; five-dose): 16.2 µM
- IC50 (COLO 205; five-dose): 30.2 µM
- IC (TGI) (COLO 205; five-dose): 37.2 µM
- CC50 (COLO 205; five-dose): 85.1 µM
- GI50 (MDA-MB-231/ATCC; five-dose): 3.89 µM
- IC50 (MDA-MB-231/ATCC; five-dose): 8.13 µM
- IC (TGI) (MDA-MB-231/ATCC; five-dose): 14.1 µM
- CC50 (MDA-MB-231/ATCC; five-dose): 43.7 µM
- GI50 (MDA-MB-435; five-dose): 5.01 µM
- IC50 (MDA-MB-435; five-dose): 8.13 µM
- IC (TGI) (MDA-MB-435; five-dose): 18.2 µM
- CC50 (MDA-MB-435; five-dose): 49 µM
- GI50 (HCT-15; five-dose): 2.95 µM
- IC50 (HCT-15; five-dose): 3.8 µM
- IC (TGI) (HCT-15; five-dose): 11 µM
- CC50 (HCT-15; five-dose): 41.7 µM
- GI50 (NCI-H322M; five-dose): 3.16 µM
- IC50 (NCI-H322M; five-dose): 8.32 µM
- IC (TGI) (NCI-H322M; five-dose): 12.6 µM
- CC50 (NCI-H322M; five-dose): 35.5 µM
- GI50 (K-562; K562, five-dose): 2.82 µM
- IC50 (K-562; K562, five-dose): 3.63 µM
- IC (TGI) (K-562; K562, five-dose): 8.71 µM
- CC50 (K-562; K562, five-dose, read-out: LC50 (the source's name)): ≥ 100 µM
- GI50 (CCRF-CEM; five-dose): 1.41 µM
- IC50 (CCRF-CEM; five-dose): 2.51 µM
- IC (TGI) (CCRF-CEM; five-dose): 4.57 µM
- CC50 (CCRF-CEM; five-dose): ≥ 100 µM
- GI50 (HOP-92; five-dose): 13.8 µM
- IC50 (HOP-92; five-dose): 34.7 µM
- IC (TGI) (HOP-92; five-dose): 32.4 µM
- CC50 (HOP-92; five-dose): 75.9 µM
- GI50 (SN12C; five-dose): 6.61 µM
- IC50 (SN12C; five-dose): 12.6 µM
- IC (TGI) (SN12C; five-dose): 20 µM
- CC50 (SN12C; five-dose): 46.8 µM
- GI50 (NCI-H522; five-dose): 1.7 µM
- IC50 (NCI-H522; five-dose): 3.39 µM
- IC (TGI) (NCI-H522; five-dose): 3.72 µM
- CC50 (NCI-H522; five-dose): 8.13 µM
- GI50 (LOX IMVI; five-dose): 1.62 µM
- IC50 (LOX IMVI; five-dose): 2.88 µM
- IC (TGI) (LOX IMVI; five-dose): 3.02 µM
- CC50 (LOX IMVI; five-dose): 5.5 µM
- GI50 (UO-31; five-dose): 1.78 µM
- IC50 (UO-31; five-dose): 3.39 µM
- IC (TGI) (UO-31; five-dose): 3.8 µM
- CC50 (UO-31; five-dose): 7.94 µM
